Experimental data from US5948750A, “Conjugates useful in the treatment of prostate cancer” (priority 1997, dated 1999).
Like-named read-outs stand apart in the source and are kept apart here. Square brackets hold non-standard residues; d marks the D form. Peptide text beside a SMILES is read from it. * marks the point of attachment. Doxorubicin(3'-N) = COc1cccc2c1C(=O)c1c(O)c3c(c(O)c1C2=O)C[C@@](O)(C(=O)CO)C[C@@H]3O[C@H]1C[C@H](N*)[C@H](O)[C@H](C)O1; Decanoyl(3,6,9-trioxa) = COCCOCCOCC(=O)*; Hyp = O=C(O)[C@@H]1C[C@@H](O)CN1; Chg = N[C@H](C(=O)O)C1CCCCC1; ΔPro = O=C(O)[C@@H]1C=CCN1

How the values were obtained:
free PSA [1] = target: T1, free PSA (Homo sapiens, UniProt P07288); type: biochemical; conditions: for Substrate cleavage by PSA at 3 hours: oligopeptide to PSA molar ratio 100 to 1; for Time to 50% Substrate Cleavage by PSA: free psa
T1 construct: required for 50% cleavage of the noted oligopeptides with enzymatically active free PSA
T1 sequence (P07288 25-261): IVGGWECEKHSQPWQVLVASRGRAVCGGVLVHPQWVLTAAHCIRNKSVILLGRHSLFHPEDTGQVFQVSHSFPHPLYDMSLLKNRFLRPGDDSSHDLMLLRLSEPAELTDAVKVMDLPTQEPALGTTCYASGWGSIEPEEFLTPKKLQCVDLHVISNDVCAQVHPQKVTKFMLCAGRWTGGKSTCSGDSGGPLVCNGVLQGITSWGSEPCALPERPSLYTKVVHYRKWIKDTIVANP
Description: The oligopeptides prepared as described in Example 1 were individually dissolved in PSA digestion buffer (12 mM tris(hydroxymethyl)-aminomethane pH 8.0, 25 mM NaCl, 0.5 mM CaCl2) and the solution added to PSA at a molar ration of 100 to 1. Alternatively, the PSA digestion buffer utilized is 50 mM tris(hydroxymethyl)-aminomethane pH 7.4, 140 mM NaCl. The reaction is quenched after various reaction times by the addition of trifluoroacetic acid (TFA) to a final 1% (volume/volume). Alternatively the reaction is quenched with 10 mM ZnCl2. The quenched reaction was analyzed by HPLC on a reversed-phase C18 column using an aqueous 0.1% TFA/acetonitrile gradient. […] Oligopeptides containing free amine moieties (ie. comprising hArg, Orn, Lys and or 3PAL) were tested as TFA salts. All other oligopeptides were tested as neutral compounds.

free PSA [2] = target: T1, free PSA; experiment: Recognition of oligopeptide-doxorubicin conjugates by free PSA (HPLC cleavage assay); type: biochemical; conditions: conjugate to PSA molar ratio 100 to 1; enzymatically active free PSA
Description: The conjugates prepared as described in Examples 3-5 were individually dissolved in PSA digestion buffer (12 mM tris(hydroxymethyl)-aminomethane pH 8.0, 25 mM NaCl, 0.5 mM CaCl2) and the solution added to PSA at a molar ration of 100 to 1. Alternatively, the PSA digestion buffer utilized is 50 mM tris(hydroxymethyl)-aminomethane pH 7.4, 140 mM NaCl. The reaction is quenched after various reaction times by the addition of trifluoroacetic acid (TFA) to a final 1% (volume/volume). Alternatively the reaction is quenched with 10 mM ZnCl2. The quenched reaction was analyzed by HPLC on a reversed-phase C18 column using an aqueous 0.1% TFA/acetonitrile gradient. […] If no salt is indicated for the conjugate, the free conjugate was tested. The oligopeptide-cytotoxic agent conjugates described in Examples 4 and 5 were assessed for the amount of time (in minutes) required for 50% cleavage of the oligopeptide with enzymatically active free PSA and 50% cleavage occurred in less than 2 hours for those conjugates.

[3] = system: LNCap prostate tumor cells (which express enzymatically active PSA); experiment: In vitro cytotoxicity of peptidyl derivatives of doxorubicin, Alamar Blue assay, LNCaP; type: cell-based; conditions: 72 HRS (3 days at 37° C.), read-out: LNCaP Cell Kill in 72 HRS EC 50
Description: (§1) The cytotoxicities of the cleaveable oligopeptide-doxorubicin conjugates, prepared as described in Examples 3 and 4, against a line of cells which is known to be killed by unmodified doxorubicin were assessed with an Alamar Blue assay. Specifically, cell cultures of LNCap prostate tumor cells (which express enzymatically active PSA) or DuPRO cells in 96 well plates was diluted with medium (Dulbecco's […]-α[MEM-α]) containing various concentrations of a given conjugate (final plate well volume of 200 μl). The cells were incubated for 3 days at 37° C., 20 μl of Alamar Blue is added to the assay well. The cells were further incubated and the assay plates were read on a EL-310 ELISA reader at the dual wavelengths of 570 and 600 nm at 4 and 7 hours after addition of Alamar Blue. Relative percentage viability at the various concentration of conjugate tested was then calculated versus control (no conjugate) cultures. If no salt is indicated, the free conjugate was tested.

DuPRO cells = experiment: In vitro cytotoxicity of peptidyl derivatives of doxorubicin, Alamar Blue assay, DuPRO; type: cell-based; conditions: 72 HRS, read-out: DUPRO Cell Kill in 72 HRS EC 50
Description: as §1

SMILES	Substrate cleavage by PSA at 3 hours (free PSA [1]) [%]	Time to 50% Substrate Cleavage by PSA (free PSA [2]) [min]	Time to 50% Substrate Cleavage by PSA (free PSA [1]) [min]	further results
CC(=O)N1C[C@H](O)C[C@H]1C(=O)N[C@H](C(=O)N[C@@H](CCC(N)=O)C(=O)N[C@@H](CO)C(=O)N[C@@H](CO)C(=O)N[C@@H](CO)C(=O)N[C@@H](CC(C)C)C(=O)O)C1CCCCC1 [Ac-(4-trans-L-Hyp)ChgQ-SSSL-acid] (Ac-[Hyp][Chg]QSSSL-OH)	0	–	–	–
CC(=O)N1C[C@H](O)C[C@H]1C(=O)N[C@@H](C)C(=O)N[C@@H](CO)C(=O)N[C@H](C(=O)N[C@@H](CCC(N)=O)C(=O)N[C@@H](CO)C(=O)N1Cc2ccccc2C[C@H]1C(=O)O)C1CCCCC1 [Ac-(4-trans-L-Hyp)ASChgQ-S(TIC)-acid]	16	–	–	–
COc1cccc2c1C(=O)c1c(O)c3c(c(O)c1C2=O)C[C@@](O)(C(=O)CO)C[C@@H]3O[C@H]1C[C@H](NC(=O)[C@H](CC(C)C)NC(=O)[C@H](CO)NC(=O)[C@H](CCC(N)=O)NC(=O)[C@@H](NC(=O)[C@H](CO)NC(=O)[C@H](C)NC(=O)[C@@H]2C[C@@H](O)CN2C(C)=O)C2CCCCC2)[C@H](O)[C@H](C)O1 (relative stereo) [Ac-(4-trans-L-Hyp)ASChgQ-SL-DOX (3'), [N-Ac-(4-trans-L-Hyp)]-Ala-Ser-Chg-Gln-Ser-Leu-Dox]	–	20	–	EC50 [3]: 4.5 µM; EC50 (DuPRO cells): 90 µM
CC(=O)N1CCC[C@H]1C(=O)N[C@@H](C)C(=O)N[C@@H](CO)C(=O)N[C@H](C(=O)N[C@@H](CCC(N)=O)C(=O)N[C@@H](CO)C(=O)N[C@@H](CC(C)C)C(=O)O)C1CCCCC1 [Ac-PASChgQ-SL-acid] (Ac-PAS[Chg]QSL-OH)	–	–	150	–
CC(=O)N1CC=C[C@H]1C(=O)N[C@@H](C)C(=O)N[C@@H](CO)C(=O)N[C@H](C(=O)N[C@@H](CCC(N)=O)C(=O)N[C@@H](CO)C(=O)N[C@@H](CC(C)C)C(=O)O)C1CCCCC1 [Ac-(Dehydro-Pro)-ASChgQ-SL-acid] (Ac-[ΔPro]AS[Chg]QSL-OH)	28	–	–	–
COCCOCCOCC(=O)N1C[C@H](O)C[C@H]1C(=O)N[C@@H](C)C(=O)N[C@@H](CO)C(=O)N[C@H](C(=O)N[C@@H](CCC(N)=O)C(=O)N[C@@H](CO)C(=O)N[C@@H](CC(C)C)C(=O)O)C1CCCCC1 [PEG(2)-(4-trans-L-Hyp)-ASChgQ-SL-acid] ({Decanoyl(3,6,9-trioxa)}-[Hyp]AS[Chg]QSL-OH)	44	–	–	–
COCCOCCOCC(=O)N1C[C@H](O)C[C@H]1C(=O)N[C@@H](C)C(=O)N[C@@H](CO)C(=O)N[C@H](C(=O)N[C@@H](CCC(N)=O)C(=O)N[C@@H](CO)C(=O)N[C@@H](CC(C)C)C(=O)N[C@H]1C[C@H](O[C@H]2C[C@](O)(C(=O)CO)Cc3c(O)c4c(c(O)c32)C(=O)c2c(OC)cccc2C4=O)O[C@@H](C)[C@H]1O)C1CCCCC1 [PEG(2)-(4-trans-L-Hyp)ASChgQ-SL-DOX (3')] ({Decanoyl(3,6,9-trioxa)}-[Hyp]AS[Chg]QSL-{Doxorubicin(3'-N)})	–	20	–	–
COc1cccc2c1C(=O)c1c(O)c3c(c(O)c1C2=O)C[C@@](O)(C(=O)CO)C[C@@H]3O[C@H]1C[C@H](NC(=O)[C@H](CC(C)(C)C)NC(=O)[C@H](CO)NC(=O)[C@H](CCC(N)=O)NC(=O)[C@@H](NC(=O)[C@H](CO)NC(=O)[C@H](C)NC(=O)[C@@H]2C[C@@H](O)CN2C(C)=O)C2CCCCC2)[C@H](O)[C@H](C)O1	–	25	–	–
CC(=O)N1C[C@H](O)C[C@H]1C(=O)N[C@@H](C)C(=O)N[C@@H](CO)C(=O)N[C@H](C(=O)N[C@@H](CCC(N)=O)C(=O)N[C@@H](CO)C(=O)N[C@@H](CC(C)C)C(=O)O)C1CCCCC1 [Ac-(4-trans-L-Hyp)ASChgQ-SL-acid, [N-Ac-(4-trans-L-Hyp)]-Ala-Ser-Chg-Gln-Ser-Leu-OH] (Ac-[Hyp]AS[Chg]QSL-OH)	–	–	75	–
CC(=O)N1CCC[C@H]1C(=O)N[C@@H](CO)C(=O)N[C@@H](CO)C(=O)N[C@H](C(=O)N[C@@H](CCC(N)=O)C(=O)N[C@@H](CO)C(=O)N[C@H](C(=O)O)C(C)C)C1CCCCC1 [Ac-PSSChgQ-SV-acid]	–	–	120	–
